# US11787850B2, “Peptidic TGF-beta antagonists” (priority 2015, dated 2023)
# Key:
# [1] = tested on: TGF-β-induced migration of squamous cell carcinoma (A431) cells; assay: Scratch (wound closure) migration assay, A431 cells; type: cell-based; conditions: 100 pM TGF-β1, 24 hours, P16 concentrations as indicated (FIG. 27)
# Method: FIG. 10A and FIG. 10B illustrate that peptides B, E and X-1 inhibit TGF-β-induced cellular migration of A431 cells in vitro. Results are shown prior to treatment (0 hr, top panels) and after treatment (24 hr, bottom panels) for each of the peptides used. (See FIG. 2 and Table 1 for the amino acid sequence identity of the peptides).
# A431 cells were grown to 80-90% confluence and serum-starved overnight. The next day, cells were scratched with a plastic pipette tip (time 0 hour) and then left untreated or treated for 24 hours with 100 pM TGF-β1 alone or in the presence of P16 as indicated. (FIG. 27A) Digital images were captured at 0 h and 24 h using an EVOS XL Core microscope. (FIG. 27B) Micrographs were subsequently quantitated to determine the percentage of the wound area that had closed following 24 hours in the presence or absence of P16, as indicated.
# Cells were scratched with a pipette tip and treated without or with 100 pM TGF-b1 alone or in the presence of 10 nM Peptide A or Peptide A1 (C31S mutant). Pictures were taken at 0 and 24 hrs. Peptide A but not Peptide A1 inhibits TGF-b-induced migration in A431 cells. Peptide A contains monomeric and dimeric forms whereas Peptide A1 contains a C31S mutation to prevent intermolecular disulfide bond formation so that it forms monomers only.
# Squamous cell carcinoma (A431) or breast cancer (MDA-MB-231) cells were grown to 80-90% confluence and serum-starved overnight. The next day, cells were scratched with a plastic pipette tip (time 0 hour) and then left untreated or treated for 24 hours with 100 pM TGF-β1 alone or in the presence of 10 nM peptide B (100 aa), E (67 aa), or X1 (P28, 28 aa). Digital images were captured at 0 h and 24 h (20× magnification) using an EVOS XL Core microscope.
# [2] = tested on: TGF-β-induced epithelial-mesenchymal transition (EMT) response in squamous cell carcinoma (A431) cells; assay: Immunoblot of EMT markers in A431 cells; type: cell-based
# Method: (FIG. 26A) Immunoblot analysis was carried out using cell lysates of A431 cells following incubation with TGF-β, P16, or scrambled control (P16.2) as indicated to determine expression of proteins involved in the EMT response. (FIG. 26B) Densitometry analysis was subsequently performed using the developed immunoblot to illustrate the relative expression of each protein as a function as P16 concentration as indicated.
# A431 cancer cells treated with 10 nM of P16.2 (negative peptide control), P12, P16 or PA in the absence or presence of 100 pM TGF-b, followed by 24 hrs of incubation. Cells lysates were analyzed by Western blot for the expression of Fibronectin (mesenchymal marker), Snail and Twist (EMT markers). Actin expression was used as loading control.
# [3] = tested on: bleomycin-induced skin fibrosis; assay: Bleomycin-induced skin fibrosis (scleroderma) mouse model; type: in vivo
# Method: Wild type mice were treated with bleomycin ([…]) to induce skin fibrosis or PBS (negative control). Mice were treated with CD109 ([…]), P16 ([…]), or PBS by 100 μL subcutaneous injection every other day for 28 days for a total of 14 injections.
# (§1) Mice were injected intradermally with bleomycin (5 mg) in […] PBS or PBS alone every second day for 28 days. Mice were co-injected without or with 1.0 mg recombinant CD109 protein or P16 peptide every second day for 28 days (14 mg total). Skin tissue was harvested and immunohistochemical analysis was performed for the detection of Fibronectin, α-sma, CTGF and Type-1 Collagen. Representative images of sections of skin derived from CD109 and p16 treated mice on day 28 after initial bleomycin or PBS treatment are shown. A total of 4-6 different mice per treatment group were analyzed. Original magnification x 20.
# as §1, with “phospho-Smad2, phospho-Smad1” for “Fibronectin, α-sma, CTGF”, “TGF-β levels.” for “Type-1 Collagen.”
# [4] = tested on: TGF-β-induced fibrotic response in primary human fibroblasts isolated from scleroderma patients; assay: Immunoblot of fibrotic markers in scleroderma patient fibroblasts; type: cell-based; conditions: various concentrations of P16, 20 pM TGF-β, 24 hours (FIG. 31)
# Text: (FIG. 30A) Cell lysates were separated by gel electrophoresis, transferred to a membrane, and immunoblotted with antibodies against the indicated proteins. (FIG. 30B) The data shown represent the mean expression levels of 3 different biological replicates calculated by densitometry of fibronectin, PAI-1, and CTGF intensity levels normalized to α-tubulin. Error bars represent the standard deviation of the replicate experiments. A single asterisk designates a t test P value of less than 0.05.
# Fibroblasts were starved for 36 hours, then treated with 20 pM TGF-β and various concentrations of P16 as indicated for 24 hours. (FIG. 31A) Cell lysates were separated by gel electrophoresis, transferred to a membrane, and immunoblotted with antibodies against the indicated proteins. (FIG. 31B) The data shown represent the mean expression levels of 3 different biological replicates calculated by densitometry of fibronectin, PAI-1, and CTGF intensity levels normalized to α-tubulin. Error bars represent the standard deviation of the replicate experiments. A single asterisk designates a t test P value of less than 0.05, and a double asterisk indicates a P value of less than 0.01.
# [5] = tested on: TGF-b-induced phosphorylation of Smad2 in squamous cell carcinoma (A431) cells; assay: Western blot for phospho-Smad2 in A431 cells; type: cell-based; conditions: 10 nM peptide, 100 pM TGF-b, 45 min at 4 C (FIG. 32)
# Method: A431 cancer cells treated with 10 nM of P16.2 (negative peptide control), P16 or PA in the absence or presence of 100 pM TGF-b, followed by 45 min of incubation at 4 C. Cells lysates were analyzed by Western blot using an anti-phosphoSmad2 antibody. Actin expression was used as loading control.
# [6] = co-injected with bleomycin every second day for 28 days (FIG. 37)
sequence,measurement,setting,value
ETWIWLDTNMGSRIYQ [Peptide P16],"inhibition of A431 cell migration, dose-dependent",[1],inhibit
same,"inhibition of TGF-b induced EMT response (Fibronectin, Snail, Twist)","[2]; 10 nM peptide, 100 pM TGF-b, 24 hrs (FIG. 33)",inhibit
same,"inhibition of TGF-β-induced EMT response in A431 cells, dose-dependent","[2]; immunoblot and densitometry, P16 concentrations as indicated (FIG. 26)",inhibit
same,SMAD1 phosphorylation in skin (immunohistochemistry),[3]; [6],enhancing
same,SMAD2 phosphorylation in skin (immunohistochemistry),[3]; [6],reduces
same,TGF-β expression in skin (immunohistochemistry),[3]; [6],reduces
same,"extracellular matrix production (Fibronectin, α-sma, CTGF, Type-1 Collagen, immunohistochemistry)","[3]; co-injected with bleomycin every second day for 28 days, skin on day 28 (FIG. 36)",reduces
same,collagen content as assessed by trichrome staining,[3]; subcutaneous injection every other day for 28 days (FIG. 35A),reducing
same,"dermal collagen content, ratio of trichrome stain to total skin area",[3]; subcutaneous injection every other day for 28 days (FIG. 35B),reducing
same,dermal thickness,"[3]; trichrome staining, subcutaneous injection every other day for 28 days (FIG. 35A)",reducing
same,"inhibition of TGF-β-induced fibrotic response, dose-dependent",[4],inhibit
same,inhibition of TGF-b-induced phosphorylation of Smad2,[5],inhibit
